From PubChem BioAssay AID588398 (Broad Institute, 2011) come the findings set out here.

One may read the AC50 as the concentration at which the activity in the assay is half-maximal. Low values mean greater potency, high ones weaker potency.

Results filed as inconclusive are left out.

The nature of this test: TES1-eGFP NF-kB reporter inhibition versus Tet-On dsRED, dose response, selectivity assay for LMP1 NF-kB inhibitor project, imaging, HEK293T, dual-color eGFP/dsRED, cherry-picks (AID 588398). To be noted: 48 h, dsRED channel counter-screen. A general note: The purpose of a counterscreen is to sort out artefacts and off-target activity.
The compound `C#CCN(C[C@@H]1[C@@H](OC(=O)NCC2CCCCC2)[C@@H](OC(=O)NCC2CCCCC2)Cn2c(=O)ccc(=O)n21)S(=O)(=O)c1ccc(C)cc1` had an AC50 of 2.83 µM. Compound `COc1ccc(-c2csc3ncnc(NCCCO)c23)cc1` returned an AC50 of 4.81 µM.

In turn, `CCCC(=O)NC(c1ccc(C)cc1)c1ccc2cccnc2c1O` (centres undefined) showed an AC50 of 4.12 µM.

For `CC(=O)NC(c1ccc(Cl)cc1)c1ccc2cccnc2c1O` (centres undefined), the AC50 worked out at 4.14 µM. `Cc1cc(C)nc(N/C(=N\S(=O)(=O)Cc2ccccc2)Nc2ccccc2Br)n1` yielded an AC50 of 18.1 µM. The result for `C/C(=N/NC(=O)c1ccc(C(C)(C)C)cc1)c1ccccn1` reads 14.3 µM; that for `O=[N+]([O-])c1ccc2ncnc(N3CCN(Cc4ccc5c(c4)OCO5)CC3)c2c1`, 2.87 µM. As for `O=C(NN=Cc1ccc(N(CCCl)CCCl)cc1Cl)c1cccnc1`, the AC50 is 1.58 µM. For the compound `COc1ccc(N2Cc3ccccc3C2=O)cc1`, the AC50 is over 19.5 µM. For `CCCCC(=O)NC(c1ccc(OC)c(OC)c1)c1ccc2cccnc2c1O` (centres undefined), the AC50 amounted to 13.6 µM. Under `O=C(c1ccccc1)C(CCC(CN1CCOCC1)C(=O)c1ccccc1)CN1CCOCC1` (centres undefined) stands 1.99 µM.

As to `N#CC(C#N)=NNc1ccc(-n2ccc(C(F)(F)F)n2)cc1`, the AC50 is 6.47 µM. The result for `COc1ccc(C=C2CS(=O)(=O)CC(=Cc3ccc(OC)cc3)C2=O)cc1` reads 1.61 µM. Compound `CN(CCNC(=O)C1CCN(S(=O)(=O)N2CCOCC2)CC1)CCc1ccccc1` returned an AC50 of over 19.5 µM. The compound `Cc1cc(N2CCOCC2)c2c(N)c(Br)cc(C)c2n1` returned an AC50 of 3.34 µM. In turn, `N#Cc1ncc(N=Cc2ccc(N(CCCl)CCCl)cc2)s1` had an AC50 of 12.6 µM.

Compound `CCOC(=O)c1c(-n2cccc2)sc2c1CCCC2=O` came in with a concentration at half-maximal activity (AC50) of 11 µM. Compound `CS(=O)(=O)c1ccc(Sc2nc3ccccc3s2)c([N+](=O)[O-])c1` returned an AC50 of 3.22 µM. Compound `COC(=O)[C@@]1(Cc2ccccc2)[C@H]2C(=O)N(Cc3ccccc3)C(=O)[C@H]2[C@H]2CN=C(SCc3ccc(Cl)cc3)N21` came in with an AC50 of 2.49 µM. Turning to `C#CCN(C[C@@H]1[C@@H](OC(=O)NCc2ccccc2F)[C@@H](OC(=O)NCc2ccccc2F)Cn2c(=O)ccc(=O)n21)S(=O)(=O)c1ccc(C)cc1`, the half-maximal activity concentration (AC50) turned out to be 3.9 µM.

For `CCC(=O)NC(c1cc(Cl)c2cccnc2c1O)C1CC1` (centres undefined), the AC50 worked out at 13 µM.

`COc1ccc(-n2c(C)c([N+](=O)[O-])c3ccc(O)c(CN(C)C)c32)cc1` gave an AC50 of 0.665 µM.

Turning to `COc1ccc(-c2csc3ncnc(Sc4nnnn4C)c23)cc1`, the AC50 amounted to 10.5 µM. With `Cc1cc(=O)[nH]c(NN=Cc2cc(Br)ccc2O)n1`, the AC50 came to 8.82 µM. This AC50 and that of the compound before are within 1.5-fold of each other. As for `O=c1c(O)c(-c2ccc(O)c(O)c2)oc2cc(O)cc(O)c12`, the AC50 is over 19.5 µM. Consider `Cc1ccc2[nH]c3c(c2c1)CCCC3NC(=O)CCl` (centres undefined), for which the AC50 was determined as 3.25 µM. In turn, `NC(=S)NN=Cc1nccc2c(C(F)(F)C(F)(F)C(F)(F)F)cccc12` returned an AC50 of 1.27 µM. Against the preceding compound, the AC50 is about 2.6-fold lower. Under `c1ccc(C(=NNc2nc3ccccc3s2)c2ccccn2)cc1` stands 1.48 µM; under `CCC(=O)NC(c1ccc(C)cc1)c1ccc2cccnc2c1O` (centres undefined), 3.61 µM.

In turn, `CCN(CC)S(=O)(=O)c1ccc(N/N=C/c2ccc(O)cc2O)nc1` returned an AC50 of 4.19 µM. Compound `COc1cccc(/C=N/NC(=O)c2[nH]nc3c2CCc2ccccc2-3)c1O` registered an AC50 of 5.87 µM.

In the case of `CCOC(=O)/C=C(\C)Sc1cc(=O)oc2ccccc12`, the AC50 was found to be 8.75 µM.

`COc1cccc(/C=N/Nc2ncnc(Cl)c2N)c1O` returned an AC50 of 3.08 µM. `CNc1cccnc1C=NNC(N)=S` showed an AC50 of 12.8 µM.

As to `CC(=O)NC(c1ccc(Cl)cc1Cl)c1ccc2cccnc2c1O` (centres undefined), the AC50 is 5.82 µM. The result for `CCC(C)Nc1nc(-c2ccccn2)nc2ccccc12` (centres undefined) reads 8.45 µM; that for `S=C(NN=Cc1ccccn1)Nc1ccccn1`, over 19.5 µM.

In turn, `CC(=NNc1nc2ccccc2o1)c1ncccn1` displayed an AC50 of 1.13 µM. In other words, the single-digit micromolar range. `COC(=O)[C@@]1(C)[C@H]2C(=O)N(Cc3ccccc3)C(=O)[C@H]2[C@H]2CN=C(SCc3ccc(Cl)cc3)N21`: the AC50 was found to be 2.41 µM.

With `Oc1ccc(C=NNC(=S)Nc2ccccc2)nc1`, the AC50 was 11.1 µM. Regarding `COc1ccc(N/N=C/c2c(C(=O)O)ccc3ccccc23)cc1`, the AC50 stood at 12.4 µM.

In the case of `C=CCn1c(C)c(C(C)=O)c(N2CCN(C(c3ccccc3)c3ccccc3)CC2)nc1=S`, the AC50 was over 19.5 µM.

Compound `O=C(N/N=C/c1ccc(O)cc1O)c1ccc(CN2C(=O)c3cccc4cccc2c34)cc1` displayed an AC50 of 12.7 µM. The compound `CCn1c2ccccc2c2cc(/C=N/NC(=O)c3cc(O)cc(O)c3)ccc21` registered an AC50 of 2.14 µM. The compound `CCOc1ccc(/C=C/[N+](=O)[O-])c2ccccc12` gave an AC50 of 4.38 µM. Under `CC[C@]1(C(=O)OC)[C@H]2C(=O)N(Cc3ccccc3)C(=O)[C@H]2[C@H]2CN=C(SCc3ccc(Cl)cc3)N21` stands 1.32 µM; under `COc1cc(C=C2CCCC(=Cc3ccc(OCC4CO4)c(OC)c3)C2=O)ccc1OCC1CO1` (centres undefined), 8.08 µM; under `Cc1cc(C)n(-c2ccc(NN=C(C#N)C#N)cc2)n1`, 5.01 µM. The result for `c1nc(NCc2ccc3c(c2)OCO3)c2cc(-c3ccoc3)ccc2n1` reads 1.56 µM.
